Data published in ChEMBL document CHEMBL5149999, “The Alkaloids from Lophophora diffusa and Other "False Peyotes"” (J Nat Prod, 2021).

How the values were obtained:
[1] = Acute toxicity in po dosed mouse assessed as lethal dose incubated for 72 hrs; type: organism-based; conditions: in vivo
[2] = Acute toxicity in ip dosed mouse assessed as lethal dose incubated for 24 hrs; type: organism-based; conditions: in vivo
[3] = Acute toxicity in iv dosed mouse assessed as lethal dose incubated for 72 hrs; type: organism-based; conditions: in vivo
[4] = Drug tolerance in sc dosed dog; type: toxicity, organism-based, Canis lupus familiaris; conditions: in vivo
[5] = target: Trace amine-associated receptor 1 (Rattus norvegicus, UniProt Q923Y9); assay: Agonist activity at rat TAAR1 stably expressed in HEK293 cells incubated for 30 mins by cAMP assay; type: functional, cell-based
[6] = target: Trace amine-associated receptor 1 (Mus musculus, UniProt Q923Y8); assay: Agonist activity at mouse TAAR1 stably expressed in HEK293 cells incubated for 30 mins by cAMP assay; type: functional, cell-based
[7] = target: T1, Trace amine-associated receptor 1 (Homo sapiens, UniProt Q96RJ0); assay: Agonist activity at human TAAR1 stably expressed in HEK293 cells incubated for 30 mins by cAMP assay; type: functional, cell-based
T1 sequence (Q96RJ0 whole entry): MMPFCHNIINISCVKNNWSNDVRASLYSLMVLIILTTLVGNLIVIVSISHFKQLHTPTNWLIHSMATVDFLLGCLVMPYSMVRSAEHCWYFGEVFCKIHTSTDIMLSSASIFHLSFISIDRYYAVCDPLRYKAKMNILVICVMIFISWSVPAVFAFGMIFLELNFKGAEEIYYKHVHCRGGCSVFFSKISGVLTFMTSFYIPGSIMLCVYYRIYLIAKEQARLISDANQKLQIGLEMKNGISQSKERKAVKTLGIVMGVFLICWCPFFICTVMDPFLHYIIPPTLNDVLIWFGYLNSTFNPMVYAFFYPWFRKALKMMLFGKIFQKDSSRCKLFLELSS

[8] = target: Sigma non-opioid intracellular receptor 1 (Homo sapiens, UniProt Q99720); assay: Binding affinity to sigma 1 receptor (unknown origin) assessed as dissociation constant by competitive binding assay
[9] = target: Sigma intracellular receptor 2 (Homo sapiens, UniProt Q5BJF2); assay: Binding affinity to sigma 2 receptor (unknown origin) assessed as dissociation constant by competitive binding assay
Chain of Sigma intracellular receptor 2 (Q5BJF2 whole entry): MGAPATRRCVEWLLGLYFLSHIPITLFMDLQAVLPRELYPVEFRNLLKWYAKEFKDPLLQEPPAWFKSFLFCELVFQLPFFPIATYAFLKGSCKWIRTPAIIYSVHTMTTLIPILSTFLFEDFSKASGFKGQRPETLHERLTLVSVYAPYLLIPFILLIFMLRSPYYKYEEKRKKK

Chain of Sigma non-opioid intracellular receptor 1 (Q99720 whole entry): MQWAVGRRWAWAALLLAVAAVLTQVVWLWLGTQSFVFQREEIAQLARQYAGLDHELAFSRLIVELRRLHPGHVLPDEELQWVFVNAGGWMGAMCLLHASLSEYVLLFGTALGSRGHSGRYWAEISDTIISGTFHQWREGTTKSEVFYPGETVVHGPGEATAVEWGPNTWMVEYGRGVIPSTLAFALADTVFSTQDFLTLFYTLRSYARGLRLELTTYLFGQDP
Chain of Trace amine-associated receptor 1 (Rattus norvegicus, UniProt Q923Y9) (Q923Y9 whole entry): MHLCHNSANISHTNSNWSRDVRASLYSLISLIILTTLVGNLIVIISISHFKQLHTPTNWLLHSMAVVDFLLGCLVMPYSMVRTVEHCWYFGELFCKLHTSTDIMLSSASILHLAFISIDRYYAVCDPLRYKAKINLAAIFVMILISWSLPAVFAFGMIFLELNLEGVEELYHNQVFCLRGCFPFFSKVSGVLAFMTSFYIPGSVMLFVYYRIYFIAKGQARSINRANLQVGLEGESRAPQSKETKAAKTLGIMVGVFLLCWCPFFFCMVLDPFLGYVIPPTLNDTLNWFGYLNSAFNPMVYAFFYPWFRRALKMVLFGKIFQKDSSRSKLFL
Chain of Trace amine-associated receptor 1 (Mus musculus, UniProt Q923Y8) (Q923Y8 whole entry): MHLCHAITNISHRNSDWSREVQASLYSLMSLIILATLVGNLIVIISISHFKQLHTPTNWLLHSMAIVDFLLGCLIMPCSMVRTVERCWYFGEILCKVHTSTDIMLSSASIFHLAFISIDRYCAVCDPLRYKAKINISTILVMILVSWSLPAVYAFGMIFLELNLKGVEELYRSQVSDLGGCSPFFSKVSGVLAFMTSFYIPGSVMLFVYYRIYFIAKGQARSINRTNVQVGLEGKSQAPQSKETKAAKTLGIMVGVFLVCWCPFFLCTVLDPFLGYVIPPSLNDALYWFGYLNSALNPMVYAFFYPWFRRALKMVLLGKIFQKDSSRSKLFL

COc1cc2c(c(O)c1OC)C(C)N(C)CC2 (centres undefined)
LD50 at 72 h [1]: 200 mg/kg
LD50 at 24 h [2]: 115 mg/kg
LD50 at 72 h [3]: 52.2 mg/kg
Activity [4]: 50 mg/kg

NCCc1ccc(O)cc1 [TYRAMINE]
EC50 [5]: 0.03 µM
EC50 [6]: 0.28 µM
EC50 [7]: 0.99 µM

CNCCc1ccc(O)cc1
Kd [8]: 12.4 µM
Kd [9]: 6.6 µM
